The results in this text go back to patent US7524880B2, “Crystalline form of a substituted pyrrolidine compound” (Theravance, Inc., priority 2004, dated 2009).

In the assay the target is T1, M3 muscarinic receptor subtype (hM3) (Homo sapiens, UniProt P20309).
T1 construct: expressed in transfected cells
As to the kind of experiment: Radioligand binding assay ([3H]-NMS displacement, CHO cell membranes). As to conditions: [3H]-NMS 1 nM, 60 minutes at 37° C. The procedure: A. Membrane Preparation from Cells Expressing hM1, hM2, hM3 and hM4 Muscarinic Receptor Subtypes
CHO cell lines stably expressing cloned human hM1, hM2, hM3 and hM4 muscarinic receptor subtypes, respectively, were grown to near confluency in medium consisting of HAM's F-12 supplemented with 10% FBS and 250 μg/mL Geneticin. The cells were grown in a 5% CO2, 37° C. incubator and lifted with 2 mM EDTA in dPBS. Cells were collected by 5 minute centrifugation at 650×g, and cell pellets were either stored frozen at −80° C. or membranes were prepared immediately. For membrane preparation, cell pellets were resuspended in lysis buffer and homogenized with a Polytron PT-2100 tissue disrupter (Kinematica AG; 20 seconds×2 bursts). […] The protein concentration of the membrane suspension was determined by the method described in Lowry, O. et al., […] 193:265 (1951). […]
Radioligand binding assays were performed in 96-well microtiter plates in a total assay volume of 100 μL. […] Filter plates were rinsed three times with wash buffer (10 mM HEPES) to remove unbound radioactivity. […] The plates were then counted in a PerkinElmer Topcount liquid scintillation counter (PerkinElmer Inc., Wellesley, Mass.). Binding data were analyzed by nonlinear regression analysis with the GraphPad Prism Software package (GraphPad Software, Inc., San Diego, Calif.) using the one-site competition model. […]

T1 sequence (P20309 whole entry): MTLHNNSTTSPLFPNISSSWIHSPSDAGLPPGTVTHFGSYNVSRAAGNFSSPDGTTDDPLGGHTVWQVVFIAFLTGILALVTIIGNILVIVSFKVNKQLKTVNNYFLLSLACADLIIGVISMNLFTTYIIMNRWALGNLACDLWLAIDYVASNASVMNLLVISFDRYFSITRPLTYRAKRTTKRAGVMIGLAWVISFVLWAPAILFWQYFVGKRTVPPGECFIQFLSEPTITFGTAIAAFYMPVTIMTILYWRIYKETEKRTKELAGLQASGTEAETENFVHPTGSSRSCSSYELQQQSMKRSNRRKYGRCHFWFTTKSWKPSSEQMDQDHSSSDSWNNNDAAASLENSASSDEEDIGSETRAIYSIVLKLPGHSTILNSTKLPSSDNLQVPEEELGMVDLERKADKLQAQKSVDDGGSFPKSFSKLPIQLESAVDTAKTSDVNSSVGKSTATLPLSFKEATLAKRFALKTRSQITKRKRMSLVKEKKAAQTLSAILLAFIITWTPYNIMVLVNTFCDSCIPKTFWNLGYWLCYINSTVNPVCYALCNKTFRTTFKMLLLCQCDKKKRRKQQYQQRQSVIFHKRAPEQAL

In the case of `CNCCCCCCCCN1CC[C@@H](C(C(N)=O)(c2ccccc2)c2ccccc2)C1` [compound of formula I, 2-[(S)-1-(8-methylaminooctyl)pyrrolidin-3-yl]-2,2-diphenylacetamide], the Ki is ~960 pM.

Broadly, the Ki is a measure of affinity in units of concentration, obtained from inhibition or displacement. Read a low Ki as tighter binding.
